Test system: DLBCL-derived cell lines (U2932, DB and OCI-LY3)
Assay: Concentration matrix test, synergy matrix (Bliss equation)
Format: cell-based, human
Conditions: DB cell line, 96 h, combined with Doxorubicin
Description: (§1) The DB DLBCL-derived cell lines were treated with increasing concentrations of Ironomycin combined with Doxorubicin for 96 h and cell viability was tested by ATP quantification to obtain the viability matrix. The synergy matrix was calculated as described in Material and Methods (A).
as §1, with “Three” for “The DB”, “Venetoclax” for “Doxorubicin”, “Methods. FIG. 8A: U2932 cell line; FIG. 8B: DB cell line; FIG. 8C: OCI-LY3 cell line.” for “Methods (A).”
Two DLBCL-derived cell lines were treated with increasing concentrations of Ironomycin combined with Ibrutinib for 96 h and cell viability was tested by ATP quantification to obtain the viability matrix. The synergy matrix was calculated as described in Material and Methods. […]
Two DLBCL-derived cell lines were treated with increasing concentrations of Ironomycin combined with Venetoclax for 96 h and cell viability was tested by ATP quantification to obtain the viability matrix. The synergy matrix was calculated as described in Material and Methods. […]
Three DLBCL-derived cell lines were treated with increasing concentrations of Ironomycin combined with Venetoclax for 96 h and cell viability was tested by ATP quantification to obtain the viability matrix. […]

In the case of `C#CCN[C@@H]1C=C[C@]2(O[C@H]([C@@H](CC)C(=O)[C@@H](C)[C@@H](O)[C@H](C)[C@@H]3O[C@@H]([C@@H](CC)C(=O)O)CC[C@@H]3C)[C@@H](C)C[C@H]2C)O[C@@]12CC[C@@](C)([C@H]1CC[C@](O)(CC)[C@H](C)O1)O2` [Ironomycin], the “potentiation of doxorubicin toxicity (synergy matrix)” value is reported as “significantly potentialized the toxicity of doxorubicin”.

— patent US20230220480A1, “IRON-SCORE AND IN VITRO METHOD FOR IDENTIFYING HIGH RISK DLBCL SUBJECTS AND THERAPEUTIC USES AND METHODS” (CENTRE NATIONAL DE LA RECHERCHE SCIENTIFIQUE (CNRS), priority 2019, published 2023)
